Measured values published in ChEMBL document CHEMBL5113426, “Design, synthesis and antitumor activity study of PARP-1/HDAC dual targeting inhibitors” (Bioorg Med Chem Lett, 2022).
Activity calls are given as the source filed them. The calls are words filed in the database; no cut-off is given here.

Legend:
[1] = molecular target: Poly [ADP-ribose] polymerase 1 (Homo sapiens, UniProt P09874); assay: Inhibition of PARP-1 derived from human HeLa cell nucleus; type: subcellular
Histone deacetylase = assay: Inhibition of HDAC derived from human HeLa cell nucleus; type: subcellular
MDA-MB-231 [2] = assay: Antiproliferative activity against human MDA-MB-231 cells assessed as reduction in cell viability measured after 7 days; type: functional, cell-based; conditions: MDA-MB-231, 168 h
ES-2 [3] = assay: Antiproliferative activity against human ES2 cells assessed as reduction in cell viability measured after 7 days; type: functional, cell-based; conditions: ES-2, 168 h
DU-145 = assay: Antiproliferative activity against human DU-145 cells assessed as reduction in cell viability; type: functional, cell-based
A549 = assay: Antiproliferative activity against human A549 cells assessed as reduction in cell viability; type: functional, cell-based
HCC1937 = assay: Antiproliferative activity against human HCC1937 cells assessed as reduction in cell viability; type: functional, cell-based
CAPAN-1 = assay: Antiproliferative activity against human CAPAN-1 cells assessed as reduction in cell viability; type: functional, cell-based
Histone deacetylase 2 = Histone deacetylase 2 (Homo sapiens, UniProt Q92769); assay: Inhibition of HDAC2 (unknown origin)
Chain of Histone deacetylase 2 (Q92769 whole entry): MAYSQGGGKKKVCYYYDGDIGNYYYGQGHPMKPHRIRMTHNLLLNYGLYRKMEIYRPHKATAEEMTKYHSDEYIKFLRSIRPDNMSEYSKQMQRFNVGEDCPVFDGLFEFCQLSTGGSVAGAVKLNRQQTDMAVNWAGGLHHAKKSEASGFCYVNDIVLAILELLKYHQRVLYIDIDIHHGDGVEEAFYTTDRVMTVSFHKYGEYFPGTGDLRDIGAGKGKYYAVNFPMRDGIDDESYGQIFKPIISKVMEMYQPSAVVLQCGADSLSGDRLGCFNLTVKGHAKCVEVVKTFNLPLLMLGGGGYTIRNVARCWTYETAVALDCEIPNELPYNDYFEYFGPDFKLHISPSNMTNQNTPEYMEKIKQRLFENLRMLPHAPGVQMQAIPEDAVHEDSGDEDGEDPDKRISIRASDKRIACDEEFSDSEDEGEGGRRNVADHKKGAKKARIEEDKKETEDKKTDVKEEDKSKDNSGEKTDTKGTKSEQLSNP

Histone deacetylase 3 = Histone deacetylase 3 (Homo sapiens, UniProt O15379); assay: Inhibition of HDAC3 (unknown origin)
Chain of Histone deacetylase 3 (O15379 whole entry): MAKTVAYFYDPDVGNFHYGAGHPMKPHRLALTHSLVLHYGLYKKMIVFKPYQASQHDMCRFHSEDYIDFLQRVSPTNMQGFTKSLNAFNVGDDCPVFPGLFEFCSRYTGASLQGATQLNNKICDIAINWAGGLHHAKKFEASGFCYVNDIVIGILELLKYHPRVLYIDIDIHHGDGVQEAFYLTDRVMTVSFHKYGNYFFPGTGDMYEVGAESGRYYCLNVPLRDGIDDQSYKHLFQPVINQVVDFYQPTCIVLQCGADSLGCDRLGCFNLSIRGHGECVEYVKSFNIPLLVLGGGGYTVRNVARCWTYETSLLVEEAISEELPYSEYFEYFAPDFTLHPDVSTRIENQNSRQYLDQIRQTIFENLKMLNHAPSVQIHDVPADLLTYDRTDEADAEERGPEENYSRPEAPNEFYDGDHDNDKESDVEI

Histone deacetylase 4 = Histone deacetylase 4 (Homo sapiens, UniProt P56524); assay: Inhibition of HDAC4 (unknown origin)
Chain of Histone deacetylase 4 (P56524 whole entry): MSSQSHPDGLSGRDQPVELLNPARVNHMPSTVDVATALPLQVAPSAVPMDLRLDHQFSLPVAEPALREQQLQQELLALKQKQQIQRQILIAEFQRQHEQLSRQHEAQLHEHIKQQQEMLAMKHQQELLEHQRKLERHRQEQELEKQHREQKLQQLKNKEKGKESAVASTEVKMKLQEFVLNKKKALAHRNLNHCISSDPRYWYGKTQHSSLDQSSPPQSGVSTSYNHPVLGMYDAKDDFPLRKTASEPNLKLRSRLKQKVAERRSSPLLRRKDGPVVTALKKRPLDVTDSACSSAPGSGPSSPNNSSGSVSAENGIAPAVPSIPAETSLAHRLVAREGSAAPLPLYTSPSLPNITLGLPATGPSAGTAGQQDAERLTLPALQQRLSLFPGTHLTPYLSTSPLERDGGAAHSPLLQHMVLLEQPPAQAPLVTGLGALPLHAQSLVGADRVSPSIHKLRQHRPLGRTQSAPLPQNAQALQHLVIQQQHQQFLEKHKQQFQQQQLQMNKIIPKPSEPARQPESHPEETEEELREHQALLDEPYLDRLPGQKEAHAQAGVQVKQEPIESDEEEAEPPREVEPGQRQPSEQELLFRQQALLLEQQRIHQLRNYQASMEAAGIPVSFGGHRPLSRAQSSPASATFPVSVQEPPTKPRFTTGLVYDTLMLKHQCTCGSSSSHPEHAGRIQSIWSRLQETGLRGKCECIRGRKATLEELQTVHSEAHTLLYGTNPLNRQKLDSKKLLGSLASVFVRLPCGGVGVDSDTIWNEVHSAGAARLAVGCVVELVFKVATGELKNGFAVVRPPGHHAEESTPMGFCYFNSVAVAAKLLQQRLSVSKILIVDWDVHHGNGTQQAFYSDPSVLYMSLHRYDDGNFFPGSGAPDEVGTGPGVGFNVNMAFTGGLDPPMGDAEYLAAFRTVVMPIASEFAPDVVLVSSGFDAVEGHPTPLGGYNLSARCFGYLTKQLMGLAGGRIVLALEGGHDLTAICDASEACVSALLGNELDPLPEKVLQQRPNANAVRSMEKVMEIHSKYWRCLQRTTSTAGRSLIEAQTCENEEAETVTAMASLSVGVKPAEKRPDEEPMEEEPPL

[4] = molecular target: T1, Protein deacetylase HDAC6 (Homo sapiens, UniProt Q9UBN7); assay: Inhibition of HDAC6 (unknown origin)
T1 sequence (Q9UBN7 whole entry): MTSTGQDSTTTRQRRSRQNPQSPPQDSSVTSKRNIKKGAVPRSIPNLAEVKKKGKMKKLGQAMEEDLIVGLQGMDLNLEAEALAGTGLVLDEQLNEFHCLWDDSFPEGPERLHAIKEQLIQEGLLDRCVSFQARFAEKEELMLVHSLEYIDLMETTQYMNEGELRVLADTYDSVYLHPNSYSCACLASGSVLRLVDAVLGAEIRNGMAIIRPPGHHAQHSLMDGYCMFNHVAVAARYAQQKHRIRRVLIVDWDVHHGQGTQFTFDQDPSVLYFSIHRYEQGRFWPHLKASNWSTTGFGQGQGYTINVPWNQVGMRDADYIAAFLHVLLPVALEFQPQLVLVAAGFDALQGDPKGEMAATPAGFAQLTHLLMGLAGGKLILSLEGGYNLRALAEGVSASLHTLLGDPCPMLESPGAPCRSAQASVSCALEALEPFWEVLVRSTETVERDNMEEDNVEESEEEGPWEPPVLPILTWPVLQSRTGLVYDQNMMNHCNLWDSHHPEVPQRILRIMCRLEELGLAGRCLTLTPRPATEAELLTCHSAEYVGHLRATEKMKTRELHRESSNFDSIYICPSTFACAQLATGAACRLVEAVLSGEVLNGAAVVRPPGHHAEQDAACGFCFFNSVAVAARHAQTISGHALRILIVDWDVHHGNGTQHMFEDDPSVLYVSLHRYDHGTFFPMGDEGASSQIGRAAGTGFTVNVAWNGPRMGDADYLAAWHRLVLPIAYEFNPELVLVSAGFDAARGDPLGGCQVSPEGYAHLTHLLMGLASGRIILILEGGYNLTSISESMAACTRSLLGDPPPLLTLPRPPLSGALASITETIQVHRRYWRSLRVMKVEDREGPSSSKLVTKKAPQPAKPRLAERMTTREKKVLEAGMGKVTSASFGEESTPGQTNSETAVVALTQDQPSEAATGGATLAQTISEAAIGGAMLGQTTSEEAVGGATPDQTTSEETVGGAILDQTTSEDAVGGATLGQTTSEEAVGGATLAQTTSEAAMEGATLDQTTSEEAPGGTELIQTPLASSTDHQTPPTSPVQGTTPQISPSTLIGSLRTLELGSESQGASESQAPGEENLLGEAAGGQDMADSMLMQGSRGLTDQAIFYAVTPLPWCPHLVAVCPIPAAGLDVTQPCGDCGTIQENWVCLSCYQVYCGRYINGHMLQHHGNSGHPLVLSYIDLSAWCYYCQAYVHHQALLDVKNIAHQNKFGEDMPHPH

Histone deacetylase 8 = molecular target: T2, Histone deacetylase 8 (Homo sapiens, UniProt Q9BY41); assay: Inhibition of HDAC8 (unknown origin)
T2 sequence (Q9BY41 whole entry): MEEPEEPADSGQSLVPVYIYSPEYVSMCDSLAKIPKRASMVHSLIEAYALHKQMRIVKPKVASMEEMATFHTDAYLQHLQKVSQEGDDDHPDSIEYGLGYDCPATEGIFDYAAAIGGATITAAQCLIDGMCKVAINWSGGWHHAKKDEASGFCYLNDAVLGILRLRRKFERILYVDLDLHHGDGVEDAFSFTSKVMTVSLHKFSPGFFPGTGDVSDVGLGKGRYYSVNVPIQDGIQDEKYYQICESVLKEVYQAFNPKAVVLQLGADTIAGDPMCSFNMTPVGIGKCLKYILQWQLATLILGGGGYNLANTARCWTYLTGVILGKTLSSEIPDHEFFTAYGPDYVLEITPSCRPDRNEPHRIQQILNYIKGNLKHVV

[5] = molecular target: Vascular endothelial growth factor receptor 2 (Homo sapiens, UniProt P35968); assay: Inhibition of VEGFR2 (unknown origin)
Chain of Vascular endothelial growth factor receptor 2 (P35968 whole entry): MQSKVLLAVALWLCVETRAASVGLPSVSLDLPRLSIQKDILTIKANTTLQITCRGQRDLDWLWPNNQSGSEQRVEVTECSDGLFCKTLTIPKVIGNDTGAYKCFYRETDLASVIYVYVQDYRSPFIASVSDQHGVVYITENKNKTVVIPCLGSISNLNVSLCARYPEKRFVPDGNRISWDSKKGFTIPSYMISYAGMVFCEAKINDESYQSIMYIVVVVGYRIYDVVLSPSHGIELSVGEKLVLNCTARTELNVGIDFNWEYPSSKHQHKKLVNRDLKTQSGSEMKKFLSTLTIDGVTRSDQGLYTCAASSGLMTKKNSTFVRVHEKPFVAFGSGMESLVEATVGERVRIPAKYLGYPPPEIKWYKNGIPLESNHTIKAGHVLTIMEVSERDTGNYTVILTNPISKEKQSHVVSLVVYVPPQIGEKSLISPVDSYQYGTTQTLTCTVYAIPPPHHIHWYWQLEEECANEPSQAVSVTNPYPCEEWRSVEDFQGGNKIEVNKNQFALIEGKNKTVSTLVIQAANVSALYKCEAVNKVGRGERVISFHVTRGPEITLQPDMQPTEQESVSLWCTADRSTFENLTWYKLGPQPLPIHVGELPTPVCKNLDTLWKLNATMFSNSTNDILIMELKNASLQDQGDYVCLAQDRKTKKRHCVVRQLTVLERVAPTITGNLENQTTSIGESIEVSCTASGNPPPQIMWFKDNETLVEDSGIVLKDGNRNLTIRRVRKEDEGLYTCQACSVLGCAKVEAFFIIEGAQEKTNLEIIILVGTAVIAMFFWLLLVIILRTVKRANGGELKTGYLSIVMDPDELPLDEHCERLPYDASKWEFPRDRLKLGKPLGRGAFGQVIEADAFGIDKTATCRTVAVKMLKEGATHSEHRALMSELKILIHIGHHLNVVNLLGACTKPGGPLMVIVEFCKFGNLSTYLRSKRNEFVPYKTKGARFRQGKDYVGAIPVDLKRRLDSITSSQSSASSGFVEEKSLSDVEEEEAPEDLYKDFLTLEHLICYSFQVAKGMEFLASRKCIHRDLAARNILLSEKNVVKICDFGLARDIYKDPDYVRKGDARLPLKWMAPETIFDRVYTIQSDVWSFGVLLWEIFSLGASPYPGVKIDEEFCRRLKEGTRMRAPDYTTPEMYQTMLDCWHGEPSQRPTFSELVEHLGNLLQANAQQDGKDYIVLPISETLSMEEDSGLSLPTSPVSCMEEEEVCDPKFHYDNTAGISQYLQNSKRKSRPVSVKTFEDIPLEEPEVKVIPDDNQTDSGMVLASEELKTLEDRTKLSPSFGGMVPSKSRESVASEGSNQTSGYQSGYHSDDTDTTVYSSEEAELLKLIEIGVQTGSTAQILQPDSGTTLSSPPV

[6] = Cytotoxicity against human EA.hy 926 assessed as inhibition of cell growth; type: toxicity, cell-based; conditions: EA.hy 926 cells
HUVEC = assay: Antiangiogenesis activity in HUVEC cells assessed as damage in vascular tube structure at 5 to 10 uM by tube formation assay; type: functional, cell-based; conditions: Homo sapiens, dose 5-10 µM
MDA-MB-231 [7] = assay: Inhibition of cell migration in human MDA-MB-231 cells at 3 to 10 uM measured upto 48 hrs by wound healing assay; type: functional, cell-based; conditions: dose 3-10 µM
MDA-MB-436 = assay: Induction of intracellular ROS generation in human MDA-MB-436 cells assessed as increase in ROS level by DCFH-DA staining based microscopic analysis; type: functional, cell-based; conditions: dose 1.25-5 µM, DDE = dose-dependent effect
ES-2 [8] = assay: Upregulation of Ac-HH3 expression in human ES2 cells at 10 uM by Western blot analysis; type: functional, cell-based
ES-2 [9] = assay: Upregulation of Ac-HH4 expression in human ES2 cells at 10 uM by Western blot analysis; type: functional, cell-based
ES-2 [10] = assay: Upregulation of Ac-tubulin expression in human ES2 cells at 0.3 uM by Western blot analysis; type: functional, cell-based

Chain of Poly [ADP-ribose] polymerase 1 (P09874 whole entry): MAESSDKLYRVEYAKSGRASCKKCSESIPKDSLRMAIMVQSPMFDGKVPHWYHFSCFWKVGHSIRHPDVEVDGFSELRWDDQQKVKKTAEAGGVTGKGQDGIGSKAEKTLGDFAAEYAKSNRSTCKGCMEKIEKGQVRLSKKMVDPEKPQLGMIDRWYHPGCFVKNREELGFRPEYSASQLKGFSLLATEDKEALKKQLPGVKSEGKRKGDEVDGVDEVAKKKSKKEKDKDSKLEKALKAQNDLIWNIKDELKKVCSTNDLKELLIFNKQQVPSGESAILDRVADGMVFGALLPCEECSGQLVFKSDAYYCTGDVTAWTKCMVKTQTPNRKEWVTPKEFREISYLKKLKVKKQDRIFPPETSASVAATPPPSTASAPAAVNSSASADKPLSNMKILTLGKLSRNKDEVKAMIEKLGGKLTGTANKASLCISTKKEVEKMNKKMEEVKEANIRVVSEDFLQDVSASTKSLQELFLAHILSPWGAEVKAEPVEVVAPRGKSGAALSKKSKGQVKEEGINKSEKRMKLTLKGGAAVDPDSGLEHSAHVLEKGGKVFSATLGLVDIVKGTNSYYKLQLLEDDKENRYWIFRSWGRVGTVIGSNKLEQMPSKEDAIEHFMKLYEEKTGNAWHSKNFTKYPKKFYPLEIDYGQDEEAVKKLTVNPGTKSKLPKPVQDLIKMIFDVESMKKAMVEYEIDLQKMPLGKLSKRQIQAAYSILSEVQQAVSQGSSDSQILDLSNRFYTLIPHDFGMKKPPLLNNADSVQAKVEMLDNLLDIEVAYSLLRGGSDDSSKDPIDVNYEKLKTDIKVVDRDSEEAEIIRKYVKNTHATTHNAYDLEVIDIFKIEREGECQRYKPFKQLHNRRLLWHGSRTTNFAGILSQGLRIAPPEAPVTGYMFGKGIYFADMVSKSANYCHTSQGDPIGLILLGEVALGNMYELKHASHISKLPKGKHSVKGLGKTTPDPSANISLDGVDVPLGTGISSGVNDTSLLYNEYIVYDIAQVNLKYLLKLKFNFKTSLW

Compound	IC50 [1] [µM]	IC50 (Histone deacetylase) [µM]	IC50 (MDA-MB-231 [2]) [µM]	IC50 (ES-2 [3]) [µM]	IC50 (DU-145) [µM]	IC50 (A549) [µM]	IC50 (HCC1937) [µM]	IC50 (CAPAN-1) [µM]	further results
NC(=O)/C=C/c1ccc(COc2ccc(-n3cc4cccc(C(N)=O)c4n3)cc2)cc1	0.227	10.6	0.34	0.42	3.59	6.98	1.92	6.55	IC50 (Histone deacetylase 2): 31 µM; IC50 (Histone deacetylase 3): 2.19 µM; IC50 (Histone deacetylase 4): > 100 µM; IC50 [4]: 0.51 µM; IC50 (Histone deacetylase 8): > 100 µM; IC50 [5]: 0.0034 µM; IC50 [6]: 26 µM
NC(=O)c1cccc2cn(-c3ccc(OCCCCCC(=O)NO)cc3)nc12	0.285	> 30	4.28	1.68					
NC(=O)c1ccc(COc2ccc(-c3nc4c(C(N)=O)cccc4[nH]3)cc2)cc1	0.031	7.7	1.08	1.16	8.56	16.4	4.05	26.4	
NC(=O)c1cccc2cn(-c3ccc(OCCCCCCCC(=O)NO)cc3)nc12	0.245	13.7	> 30	6.15					
NC(=O)c1ccc(COc2ccc(-n3cc4cccc(C(N)=O)c4n3)cc2)cc1	0.0689	10.8	0.35	1.16	3.38	5.67	2.85	4.53	IC50 (Histone deacetylase 2): 42.1 µM; IC50 (Histone deacetylase 3): 7.22 µM; IC50 (Histone deacetylase 4): > 100 µM; IC50 [4]: 0.54 µM; IC50 (Histone deacetylase 8): > 100 µM; IC50 [5]: 0.00592 µM; IC50 [6]: 5.41 µM; Activity (HUVEC): Active; inhibition (MDA-MB-231 [7]): Active; Activity (MDA-MB-436): Dde; Activity (ES-2 [8]): Active; Activity (ES-2 [9]): Active; Activity (ES-2 [10]): Active
NC(=O)c1cccc2[nH]c(-c3ccc(OCCCCCC(=O)NO)cc3)nc12	0.0202	5.5	> 30	> 30					
NC(=O)/C=C/c1ccc(COc2ccc(-c3nc4c(C(N)=O)cccc4[nH]3)cc2)cc1	0.0274	7.9	0.69	1.37	4.7	7.72	2.88	5.63	
NC(=O)c1cccc2cn(-c3ccc(OCCCC(=O)NO)cc3)nc12	0.102	> 30	9.93	12.7					
NC(=O)c1cccc2[nH]c(-c3ccc(OCCCCCCCC(=O)NO)cc3)nc12	0.0475	> 30	> 30	> 30					
NC(=O)c1cccc2cn(-c3ccc(OCCCCCCC(=O)NO)cc3)nc12	0.128	> 30	> 30	1.57					
NC(=O)c1cccc2[nH]c(-c3ccc(OCCCC(=O)NO)cc3)nc12	0.0142	> 30	> 30	> 30					
O=C(c1cc(Cc2n[nH]c(=O)c3ccccc23)ccc1F)N1CCN(C(=O)C2CC2)CC1 [OLAPARIB]			0.69	2.05	11.4	5.89	> 30	1.67	
NC(=O)c1cccc2cn(-c3ccc(OCCCCC(=O)NO)cc3)nc12	0.102	> 30	2.41	3.64					
NC(=O)c1cccc2[nH]c(-c3ccc(OCCCCCCC(=O)NO)cc3)nc12	0.038	7	> 30	> 30					
NC(=O)c1cccc2[nH]c(-c3ccc(OCCCCC(=O)NO)cc3)nc12	0.0121	> 30	> 30	> 30					
